Laboratory results published in patent publication US20230312556A1, “ARYLAMIDE COMPOUND, PHARMACEUTICAL COMPOSITION COMPRISING SAME, AND PREPARATION METHOD THEREFOR AND USE THEREOF” (SICHUAN KELUN-BIOTECH BIOPHARMACEUTICAL CO., LTD., priority 2020, published 2023).

Key:
[1] = test system: human hepatocellular carcinoma cell HepG2 (NRAS-Q61K mutation); test: Cancer cell proliferation inhibition assay, HepG2; assay type: cell-based; details: 72 h incubation, Cell Titer Glo
Text: (§1) The inhibitory effects of the compounds of the present invention on cancer cell proliferation were further evaluated by testing the effects of the compounds of the present invention on the growth of cancer cells.
(§2) In this example, human melanoma cell A375 (BRAF-V600E mutation, purchased from the Cell Bank of the Chinese Academy of Sciences) and human hepatocellular carcinoma cell HepG2 (NRAS-Q61K mutation, purchased from ATCC, USA) were employed.
(§3) In this example, the test compounds at various concentrations (100000 nM, 30000 nM, 10000 nM, 3000 nM, 1000 nM, 300 nM, 100 nM, 30 nM, 10 nM) were added to the above cells, and the incubation was performed for 72 h. The inhibitory activity of the compounds was tested by measuring ATP in living cells using the Cell Titer Glo Kit (Promega).
(§4) The IC50 values of the compounds of the present invention for each tested cell were determined, and the test results are as follows: […]

[2] = biological target: wild-type BRAF enzyme (Homo sapiens (Human), UniProt P15056); test: RAF inhibition assay (TB-PMAP2K1 kit), wild-type BRAF; assay type: biochemical; details: FLUORESCEIN-MAP2K1 substrate, 60 min reaction
Procedure: Assay protocol: the inhibitory effects of the compounds of the present invention on the wild-type BRAF enzyme, mutant CRAF enzyme (RAF1 Y340D and Y341D) and mutant BRAF enzyme (BRAF-V600E) activity were determined according to the instructions of the TB-PMAP2K1 (PSER217/221) kit (ThermoFisher). Different RAF enzymes and substrates (FLUORESCEIN-MAP2K1) were pre-incubated with test compounds at various concentrations at room temperature for 15 min, and then the adenosine triphosphate (ATP) was added to initiate the reaction. After incubation at room temperature for 60 min, EDTA and Tb-labeled anti-pMAP2K1 [pS217/221] antibody solutions were added, and incubation was performed at room temperature for 60 min before the detection of the fluorescence values of the compounds in each group. With the vehicle group (DMSO) as the negative control and the buffer group (without RAF enzyme) as the blank control, the relative inhibitory activity percentage (i.e., the inhibition rate) of a compound at different concentrations was calculated according to the following formula:
Relative inhibitory activity percentage=1−(Compound group at various concentrations−blank control)/(negative control−blank control)*100%
The relative inhibitory activity percentages of the compounds at different concentrations were plotted against the compound concentrations, the curve was fitted according to a four-parameter model, and the IC50 value was calculated according to the following formula:
y=min+(max−min)/(1+(x/IC50)^(−Hillslope))
wherein y is the relative inhibitory activity percentage, max and min are respectively the maximum and minimum values of the fitted curve, x is the logarithm concentration of the compound, and Hillslope is the slope of the curve.

[3] = test system: human melanoma cell A375 (BRAF-V600E mutation); test: Cancer cell proliferation inhibition assay, A375; assay type: cell-based; details: A-375, 72 h incubation, Cell Titer Glo
Text: as §1, §2, §3, §4

Chain of wild-type BRAF enzyme (P15056 whole entry): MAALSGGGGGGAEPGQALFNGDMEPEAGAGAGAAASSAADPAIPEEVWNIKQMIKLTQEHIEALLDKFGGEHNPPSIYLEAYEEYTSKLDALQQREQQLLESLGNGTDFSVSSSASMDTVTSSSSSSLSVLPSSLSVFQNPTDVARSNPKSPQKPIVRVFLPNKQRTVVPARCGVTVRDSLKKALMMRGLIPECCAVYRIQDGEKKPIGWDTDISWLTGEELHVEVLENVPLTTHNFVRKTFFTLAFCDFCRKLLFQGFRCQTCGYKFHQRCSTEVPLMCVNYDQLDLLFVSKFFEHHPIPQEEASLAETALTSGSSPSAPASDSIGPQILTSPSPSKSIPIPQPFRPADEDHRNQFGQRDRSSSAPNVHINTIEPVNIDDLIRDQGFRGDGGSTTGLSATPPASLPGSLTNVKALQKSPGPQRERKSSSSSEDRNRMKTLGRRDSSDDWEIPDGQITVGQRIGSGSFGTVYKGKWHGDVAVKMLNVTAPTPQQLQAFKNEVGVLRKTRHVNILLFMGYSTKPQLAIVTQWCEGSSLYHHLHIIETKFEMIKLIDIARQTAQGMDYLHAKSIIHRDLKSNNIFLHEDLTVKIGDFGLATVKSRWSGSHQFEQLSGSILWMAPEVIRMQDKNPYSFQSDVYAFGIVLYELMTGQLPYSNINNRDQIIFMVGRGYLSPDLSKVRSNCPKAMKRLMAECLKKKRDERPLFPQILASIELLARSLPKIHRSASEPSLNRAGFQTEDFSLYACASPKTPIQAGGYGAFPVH

`Cc1ccc2c(Nc3ccccc3F)nccc2c1NC(=O)c1cccc2c(N)ncnc12` [Compound 39, 4-amino-N-(1-((2-fluorophenyl)amino)-6-methylisoquinolin-5-yl)quinazoline-8-carboxamide] showed an IC50 [1] of 27.1 ± 2.5 nM and an IC50 [2] of 8.44 ± 2.46 nM.

With `COc1ccc(Nc2nccc3c(NC(=O)c4cccc5c(N)ncnc45)c(C)ccc23)c(F)c1` [Compound 60, 4-amino-N-(1-((2-fluoro-4-methoxyphenyl)amino)-6-methylisoquinolin-5-yl)quinazoline-8-carboxamide] the IC50 [1] was 34.1 ± 4.32 nM, the IC50 [3] was 28 ± 3.12 nM and the IC50 [2] was 8.48 ± 0.9 nM.

With `Cc1ccc2c(Nc3cccc(C(F)(F)F)c3)nccc2c1NC(=O)c1cnc2c(N)ncnn12` [Compound 43, 4-amino-N-(6-methyl-1-((3-(trifluoromethyl)phenyl)amino)isoquinolin-5-yl)imidazo[2,1-f][1,2,4]triazine-7-carboxamide] the IC50 [1] was 32.9 ± 3.3 nM, the IC50 [3] was 61.7 ± 3 nM and the IC50 [2] was 20.7 ± 5.71 nM.

Work on `Cc1ccc2c(Nc3cc(S(C)(=O)=O)ccc3F)nccc2c1NC(=O)c1cccc2c(N)ncnc12` [Compound 89, 4-amino-N-(1-((2-fluoro-5-(methylsulfonyl)phenyl)amino)-6-methylisoquinolin-5-yl)quinazoline-8-carboxamide] yielded an IC50 [1] of 106 ± 25.2 nM, an IC50 [3] of 111 ± 5.2 nM and an IC50 [2] of 20.4 ± 1.3 nM.

Compound `Cc1ccc2c(C(O)c3cccc(C(F)(F)F)c3)nccc2c1NC(=O)c1csc2c(N)ncnc12` (stereo not drawn) [Compound 23, 4-amino-N-(1-(hydroxy(3-(trifluoromethyl)phenyl)methyl)-6-methylisoquinolin-5-yl)thieno[3,2-d]pyrimidine-7-carboxamide] has an IC50 [3] of 64.7 ± 4.22 nM and an IC50 [2] of 51.4 ± 1.64 nM.

Work on `Cc1ccc2c(Nc3ccc(Cl)cc3F)nccc2c1NC(=O)c1cccc2c(N)ncnc12` [Compound 41, 4-amino-N-(1-((4-chloro-2-fluorophenyl)amino)-6-methylisoquinolin-5-yl)quinazoline-8-carboxamide] yielded an IC50 [1] of 55.6 ± 4.8 nM, an IC50 [3] of 22.2 ± 1.86 nM and an IC50 [2] of 31.8 ± 5.36 nM.

Compound `Cc1ccc2c(Nc3cccc(Cl)c3)nccc2c1NC(=O)c1cccc2c(N)ncnc12` [Compound 38, 4-amino-N-(1-((3-chlorophenyl)amino)-6-methylisoquinolin-5-yl)quinazoline-8-carboxamide] has an IC50 [1] of 38.1 ± 3.6 nM, an IC50 [3] of 96.7 ± 14.3 nM and an IC50 [2] of 23.2 ± 2.67 nM.

`Cc1ccc2c(Cc3cccc(C(F)(F)F)c3)nccc2c1NC(=O)c1csc2c(N)ncnc12` [Compound 19, 4-amino-N-(6-methyl-1-(3-(trifluoromethyl)benzyl)isoquinolin-5-yl)thieno[3,2-d]pyrimidine-7-carboxamide] showed an IC50 [1] of 136 ± 21.3 nM, an IC50 [3] of 163 ± 21.3 nM and an IC50 [2] of 21.6 ± 4.85 nM.

With `Cc1ccc2c(C(=O)c3cccc(C(F)(F)F)c3)nccc2c1NC(=O)c1csc2c(N)ncnc12` [Compound 22, 4-amino-N-(6-methyl-1-(3-(trifluoromethyl)benzoyl)isoquinolin-5-yl)thieno[3,2-d]pyrimidine-7-carboxamide] the IC50 [2] was 50.2 ± 8.47 nM.

With `Cc1ccc2c(Nc3ccc(F)c(Cl)c3)nccc2c1NC(=O)c1cnc2c(N)ncnn12` [Compound 58, 4-amino-N-(1-((3-chloro-4-fluorophenyl)amino)-6-methylisoquinolin-5-yl)imidazo[2,1-f][1,2,4]triazine-7-carboxamide] the IC50 [1] was 37.6 ± 3.34 nM and the IC50 [2] was 10.8 ± 1.09 nM.

With `Cc1ccc2c(Nc3cccc(Cl)c3F)nccc2c1NC(=O)c1cc(OCCN2CCOCC2)cc2c(N)ncnc12` [Compound 79, 4-amino-N-(1-((3-chloro-2-fluorophenyl)amino)-6-methylisoquinolin-5-yl)-6-(2-morpholinoethoxy)quinazoline-8-carboxamide] the IC50 [1] was 145 ± 12.3 nM and the IC50 [3] was 72.2 ± 13 nM.

With `Cc1ccc2c(C(O)c3ccc(Cl)cc3F)nccc2c1NC(=O)c1csc2c(N)ncnc12` (stereo not drawn) [Compound 28, 4-amino-N-(1-((4-chloro-2-fluorophenyl)(hydroxy)methyl)-6-methylisoquinolin-5-yl)thieno[3,2-d]pyrimidine-7-carboxamide] the IC50 [3] was 98.8 ± 10.2 nM and the IC50 [2] was 9.43 ± 0.76 nM.

`Cc1ccc2c(Nc3cc(Cl)ccc3F)nccc2c1NC(=O)c1cc(F)cc2c(N)ncnc12` [Compound 84, 4-amino-N-(1-((5-chloro-2-fluorophenyl)amino)-6-methylisoquinolin-5-yl)-6-fluoroquinazoline-8-carboxamide] was tested, and the IC50 [1] was 67.2 ± 9.93 nM and the IC50 [3] was 165 ± 6.5 nM.

Compound `Cc1ccc2c(Nc3ccc(Cl)c(F)c3F)nccc2c1NC(=O)c1cnc2c(N)ncnn12` [Compound 70, 4-amino-N-(1-((4-chloro-2,3-difluorophenyl)amino)-6-methylisoquinolin-5-yl)imidazo[2,1-f][1,2,4]triazine-7-carboxamide] has an IC50 [1] of 59.9 ± 6.8 nM and an IC50 [3] of 190 ± 23.8 nM.

In the case of `Cc1ccc2c(Nc3cccc(Cl)c3F)nccc2c1NC(=O)c1nccc2c(N)ncnc12` [Compound 66, 4-amino-N-(1-((3-chloro-2-fluorophenyl)amino)-6-methylisoquinolin-5-yl)pyrido[3,4-d]pyrimidine-8-carboxamide], the IC50 [1] is reported as 46.1 ± 9.6 nM and the IC50 [3] is reported as 166 ± 6.1 nM.

`COc1ccc(Nc2nccc3c(NC(=O)c4cnc5c(N)ncnn45)c(C)ccc23)c(F)c1` [Compound 61, 4-amino-N-(1-((2-fluoro-4-methoxyphenyl)amino)-6-methylisoquinolin-5-yl)imidazo[2,1-f][1,2,4]triazine-7-carboxamide] was tested, and the IC50 [1] was 21.3 ± 4.88 nM and the IC50 [3] was 141 ± 4.88 nM.

Compound `Cc1ccc2c(Nc3cc(C#N)ccc3F)nccc2c1NC(=O)c1cccc2c(N)ncnc12` [Compound 80, 4-amino-N-(1-((5-cyano-2-fluorophenyl)amino)-6-methylisoquinolin-5-yl)quinazoline-8-carboxamide] has an IC50 [1] of 75.4 ± 6 nM and an IC50 [3] of 167 ± 8.47 nM.

`Cc1ccc2c(C(C)Oc3ccccc3)nccc2c1NC(=O)c1csc2c(N)ncnc12` (stereo not drawn) [Compound 35, 4-amino-N-(6-methyl-1-(1-phenoxyethyl)isoquinolin-5-yl)thieno[3,2-d]pyrimidine-7-carboxamide] was tested, and the IC50 [2] was 125 ± 3.5 nM.

`Cc1ccc2c(Nc3cccc(Cl)c3F)nccc2c1NC(=O)c1cc(N2CCN(C)CC2)cc2c(N)ncnc12` [Compound 54, 4-amino-N-(1-((3-chloro-2-fluorophenyl)amino)-6-methylisoquinolin-5-yl)-6-(4-methylpiperazin-1-yl)quinazoline-8-carboxamide] was tested, and the IC50 [1] was 95.6 ± 8.18 nM and the IC50 [3] was 108 ± 19.9 nM.

`Cc1ccc2c(Nc3ccc(Cl)c(CN(C)C)c3)nccc2c1NC(=O)c1cccc2c(N)ncnc12` [Compound 64, 4-amino-N-(1-((4-chloro-3-((dimethylamino)methyl)phenyl)amino)-6-methylisoquinolin-5-yl)quinazoline-8-carboxamide] was tested, and the IC50 [1] was 75.2 ± 6.9 nM and the IC50 [3] was 70.3 ± 8.5 nM.

In the case of `Cc1ccc2c(Nc3cccc(C#N)c3F)nccc2c1NC(=O)c1cccc2c(N)ncnc12` [Compound 83, 4-amino-N-(1-((3-cyano-2-fluorophenyl)amino)-6-methylisoquinolin-5-yl)quinazoline-8-carboxamide], the IC50 [1] is reported as 50.5 ± 8.48 nM and the IC50 [3] is reported as 61.9 ± 6.7 nM.

In the case of `Cc1ccc2c(Nc3ccnc(C(F)(F)F)c3)nccc2c1NC(=O)c1cccc2c(N)ncnc12` [Compound 71, 4-amino-N-(6-methyl-1-((2-(trifluoromethyl)pyridin-4-yl)amino)isoquinolin-5-yl)quinazoline-8-carboxamide], the IC50 [1] is reported as 53 ± 9.7 nM and the IC50 [3] is reported as 170 ± 13.8 nM.
